Patent US6809065B2, “Herbicide containing substituted pyrazole derivative as active ingredient” (SDS Biotech K.K., priority 2001, dated 2004)

What was measured:
Chenopodium album [1] = test: Upland field foliage treatment (Test Example 1); assay type: in vivo; details: foliage treatment 14th day after sowing, wettable powder, 1 kg active ingredient per hectare, evaluated 21st day after application
Summary of the method: (§1)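 Foliar spray, 1 kg a.i./ha, wettable powder in water, applied 14 d post-sowing; seeds covered by ~1 cm upland soil. Index scoring at 21 d. Higher index = stronger weed control; for crops, lower index = greater safety.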

Digitaria adscendens [2] = test: Upland field foliage treatment (Test Example 1); assay type: in vivo; details: foliage treatment 14th day after sowing, wettable powder, 1 kg active ingredient per hectare, evaluated 21st day after application
Summary of the method: as §1

Setaria viridis [3] = test: Upland field foliage treatment (Test Example 1); assay type: in vivo; details: foliage treatment 14th day after sowing, wettable powder, 1 kg active ingredient per hectare, evaluated 21st day after application
Summary of the method: as §1

Stellaria media [4] = test: Upland field foliage treatment (Test Example 1); assay type: in vivo; details: foliage treatment 14th day after sowing, wettable powder, 1 kg active ingredient per hectare, evaluated 21st day after application
Summary of the method: as §1

soybean (Glycine max) [5] = test: Upland field foliage treatment (Test Example 1), crop; assay type: in vivo; details: foliage treatment 14th day after sowing, 1 kg active ingredient per hectare, evaluated 21st day, lower index = higher safety
Summary of the method: as §1

[6] = system: wheat (Triticum aestivum); test: as above; assay type: in vivo; details: foliage treatment 14th day after sowing, 1 kg active ingredient per hectare, evaluated 21st day, lower index = higher safety
Summary of the method: as §1

Chenopodium album [7] = test: Upland soil treatment (Test Example 2); assay type: in vivo; details: soil surface treatment next day after sowing, wettable powder, 1 kg active ingredient per hectare, evaluated 21st day after application
Summary of the method: (§2)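 Index rating at day 21 after a single pre-emergence soil-surface application, 1 kg a.i./ha, made the day after sowing in upland soil; for crops a lower index indicates higher safety.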

Digitaria adscendens [8] = test: Upland soil treatment (Test Example 2); assay type: in vivo; details: soil surface treatment next day after sowing, wettable powder, 1 kg active ingredient per hectare, evaluated 21st day after application
Summary of the method: as §2

Setaria viridis [9] = test: Upland soil treatment (Test Example 2); assay type: in vivo; details: soil surface treatment next day after sowing, wettable powder, 1 kg active ingredient per hectare, evaluated 21st day after application
Summary of the method: as §2

Stellaria media [10] = test: Upland soil treatment (Test Example 2); assay type: in vivo; details: soil surface treatment next day after sowing, wettable powder, 1 kg active ingredient per hectare, evaluated 21st day after application
Summary of the method: as §2

soybean (Glycine max) [11] = test: Upland soil treatment (Test Example 2), crop; assay type: in vivo; details: soil surface treatment next day after sowing, 1 kg active ingredient per hectare, evaluated 21st day, lower index = higher safety
Summary of the method: as §2

[12] = system: wheat (Triticum aestivum); test: Upland soil treatment (Test Example 2), crop; assay type: in vivo; details: soil surface treatment next day after sowing, 1 kg active ingredient per hectare, evaluated 21st day, lower index = higher safety
Summary of the method: as §2

Echinochloa spp. = test: Paddy field treatment (Test Example 3); assay type: in vivo, Echinochloa crusgalli; details: paddy pot, submerged 4 cm, dropped on water surface 10th day after transplantation, 1 kg active ingredient per hectare, evaluated 21st day
Summary of the method: (§3)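 Paddy soil in pots was puddled and flooded to 4 cm, weeds were sown, and two-leaf Koshihikari rice was transplanted at 3 cm depth. Ten days after transplanting, wettable powder was applied onto the water surface at 1 kg active ingredient per hectare. Herbicidal effect was index-scored 21 days later.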

Ammannia multiflora = test: Paddy field treatment (Test Example 3); assay type: in vivo; details: paddy pot, submerged 4 cm, dropped on water surface 10th day after transplantation, 1 kg active ingredient per hectare, evaluated 21st day
Summary of the method: as §3

Monochoria vaginalis = test: Paddy field treatment (Test Example 3); assay type: in vivo; details: paddy pot, submerged 4 cm, dropped on water surface 10th day after transplantation, 1 kg active ingredient per hectare, evaluated 21st day
Summary of the method: as §3

Scirpus juncoides = test: Paddy field treatment (Test Example 3); assay type: in vivo; details: paddy pot, submerged 4 cm, dropped on water surface 10th day after transplantation, 1 kg active ingredient per hectare, evaluated 21st day
Summary of the method: as §3

[13] = system: rice (Oryza sative, variety: Koshihikari); test: Paddy field treatment (Test Example 3), crop; assay type: in vivo, Oryza sativa; details: transplanted rice two-leaf period, water surface treatment 10th day after transplantation, 1 kg active ingredient per hectare, evaluated 21st day, lower index = higher safety
Summary of the method: as §3

Structure (SMILES)	Herbicidal activity Chenopodium album (Chenopodium album [1])	Herbicidal activity Digitaria adscendens (Digitaria adscendens [2])	Herbicidal activity Setaria viridis (Setaria viridis [3])	Herbicidal activity Stellaria media (Stellaria media [4])	Herbicidal activity Glycine max (soybean (Glycine max) [5])	Herbicidal activity Triticum aestivum [6]	Herbicidal activity Chenopodium album (Chenopodium album [7])	Herbicidal activity Digitaria adscendens (Digitaria adscendens [8])	Herbicidal activity Setaria viridis (Setaria viridis [9])	Herbicidal activity Stellaria media (Stellaria media [10])	Herbicidal activity Glycine max (soybean (Glycine max) [11])	Herbicidal activity Triticum aestivum [12]	Herbicidal activity Echinochloa spp. (Echinochloa spp.)	Herbicidal activity Ammannia multiflora (Ammannia multiflora)	Herbicidal activity Monochoria vaginalis (Monochoria vaginalis)	Herbicidal activity Scirpus juncoides (Scirpus juncoides)	Herbicidal activity Oryza sativa [13]
COC=C(Cn1nc(-c2ccccc2)c(Br)c1SC)C(=O)OC [Compound 44]	4 (herbicidal effect of not less than 70% by weight and less than 90% by weight)	4 (herbicidal effect of not less than 70% by weight and less than 90% by weight)	4 (herbicidal effect of not less than 70% by weight and less than 90% by weight)	4 (herbicidal effect of not less than 70% by weight and less than 90% by weight)	0 (herbicidal effect of not less than 0% by weight and less than 10% by weight)	0 (herbicidal effect of not less than 0% by weight and less than 10% by weight)	4 (herbicidal effect of not less than 70% by weight and less than 90% by weight)	4 (herbicidal effect of not less than 70% by weight and less than 90% by weight)	4 (herbicidal effect of not less than 70% by weight and less than 90% by weight)	4 (herbicidal effect of not less than 70% by weight and less than 90% by weight)	0 (herbicidal effect of not less than 0% by weight and less than 10% by weight)	0 (herbicidal effect of not less than 0% by weight and less than 10% by weight)	3 (herbicidal effect of not less than 50% by weight and less than 70% by weight)	3 (herbicidal effect of not less than 50% by weight and less than 70% by weight)	3 (herbicidal effect of not less than 50% by weight and less than 70% by weight)	3 (herbicidal effect of not less than 50% by weight and less than 70% by weight)	0 (herbicidal effect of not less than 0% by weight and less than 10% by weight)
COC=C(Cn1cc(Cl)c(-c2ccccc2)n1)C(=O)OC [Compound 15]	5 (herbicidal effect of not less than 90% by weight)	5 (herbicidal effect of not less than 90% by weight)	5 (herbicidal effect of not less than 90% by weight)	5 (herbicidal effect of not less than 90% by weight)	1 (herbicidal effect of not less than 10% by weight and less than 30% by weight)	0 (herbicidal effect of not less than 0% by weight and less than 10% by weight)	5 (herbicidal effect of not less than 90% by weight)	5 (herbicidal effect of not less than 90% by weight)	5 (herbicidal effect of not less than 90% by weight)	5 (herbicidal effect of not less than 90% by weight)	0 (herbicidal effect of not less than 0% by weight and less than 10% by weight)	0 (herbicidal effect of not less than 0% by weight and less than 10% by weight)	5 (herbicidal effect of not less than 90% by weight)	5 (herbicidal effect of not less than 90% by weight)	5 (herbicidal effect of not less than 90% by weight)	5 (herbicidal effect of not less than 90% by weight)	0 (herbicidal effect of not less than 0% by weight and less than 10% by weight)
COC=C(Cn1nc(-c2ccccc2)c(Cl)c1C)C(=O)OC [Compound 12]	5 (herbicidal effect of not less than 90% by weight)	5 (herbicidal effect of not less than 90% by weight)	4 (herbicidal effect of not less than 70% by weight and less than 90% by weight)	5 (herbicidal effect of not less than 90% by weight)	1 (herbicidal effect of not less than 10% by weight and less than 30% by weight)	0 (herbicidal effect of not less than 0% by weight and less than 10% by weight)	5 (herbicidal effect of not less than 90% by weight)	5 (herbicidal effect of not less than 90% by weight)	4 (herbicidal effect of not less than 70% by weight and less than 90% by weight)	4 (herbicidal effect of not less than 70% by weight and less than 90% by weight)	0 (herbicidal effect of not less than 0% by weight and less than 10% by weight)	0 (herbicidal effect of not less than 0% by weight and less than 10% by weight)	4 (herbicidal effect of not less than 70% by weight and less than 90% by weight)	5 (herbicidal effect of not less than 90% by weight)	5 (herbicidal effect of not less than 90% by weight)	4 (herbicidal effect of not less than 70% by weight and less than 90% by weight)	0 (herbicidal effect of not less than 0% by weight and less than 10% by weight)
COC=C(Cn1nc(-c2cc(C)ccc2C)c(Cl)c1C)C(=O)OC [Compound 19]	5 (herbicidal effect of not less than 90% by weight)	5 (herbicidal effect of not less than 90% by weight)	4 (herbicidal effect of not less than 70% by weight and less than 90% by weight)	4 (herbicidal effect of not less than 70% by weight and less than 90% by weight)	0 (herbicidal effect of not less than 0% by weight and less than 10% by weight)	0 (herbicidal effect of not less than 0% by weight and less than 10% by weight)	4 (herbicidal effect of not less than 70% by weight and less than 90% by weight)	5 (herbicidal effect of not less than 90% by weight)	4 (herbicidal effect of not less than 70% by weight and less than 90% by weight)	5 (herbicidal effect of not less than 90% by weight)	0 (herbicidal effect of not less than 0% by weight and less than 10% by weight)	0 (herbicidal effect of not less than 0% by weight and less than 10% by weight)	5 (herbicidal effect of not less than 90% by weight)	5 (herbicidal effect of not less than 90% by weight)	5 (herbicidal effect of not less than 90% by weight)	5 (herbicidal effect of not less than 90% by weight)	1 (herbicidal effect of not less than 10% by weight and less than 30% by weight)
